Results from patent US20220117938A1, “COMBINATON THERAPY WITH A DON PRODRUG AND AN IMMUNE CHECKPOINT INHIBITOR” (DRACEN PHARMACEUTICALS, INC., priority 2019, published 2022).

System: MC-38 tumors
Assay: Anti-tumor efficacy of Compound 1 in the subcutaneous MC-38 murine colorectal cancer model: dose response (Example 1)
Format: in vivo, Mus musculus
Conditions: for Tumor volume (mm^3), Mean ± SEM: n = 8; for RTV at day 14 / T/C (%) / TGI (%) / Tumor Size (mm^3) at day 14: day 14; for ILS (%) / MST: endpoint tumor volume 2000 mm^3
Method: Female C57BL/6 mice were inoculated subcutaneously at right flank with MC-38 cells for tumor development. Four days after tumor inoculation, 64 mice with tumor size ranging from 50-92 mm^3 (average tumor size 63 mm^3) were selected and assigned into 8 groups using stratified randomization with 8 mice per group based upon their tumor volumes. The treatments were started from the day of randomization (defined as D0), Group 1 was treated with Vehicle (Tween 80:Ethanol:Saline—5:5:90 v/v/v), S.C. QD, Group 2 was treated with Compound 1 (0.1 mg/kg), S.C. QD, Group 3 was treated with Compound 1 (0.3 mg/kg), S.C. QD, Group 4 was treated with Compound 1 (0.5 mg/kg), S.C. QD, Group 5 was treated with Compound 1 (1 mg/kg), S.C. QD, Group 6 was treated with Compound 1 (3 mg/kg), S.C. QD*5 days followed by Compound 1 (1 mg/kg), S.C. QD*9 days (2 cycles), Group 7 was treated with Compound 1 (1 mg/kg), S.C. QD*5 days followed by Compound 1 (0.3 mg/kg), S.C. QD*9 days (2 cycles) and Group 8 was treated with Compound 1 (0.15 mg/kg), S.C. BID. The tumor sizes were measured three times per week during the treatment. The entire study was terminated on D74 after start of the treatment.
Animal Species: Mus musculus; Strain: C57BL/6; Age: 6-8 weeks; Sex: female; Body weight (at treatment start): 17-21 g.
The MC-38 tumor cells were maintained in vitro as a monolayer culture in DMEM medium supplemented with 10% heat inactivated fetal bovine serum and 100 μg/mL penicillin streptomycin at 37° C. in an atmosphere of 5% CO2 in air. The tumor cells were routinely subcultured twice weekly by trypsin-EDTA treatment. The cells growing to a confluency around 70%-80% were harvested and counted for tumor inoculation. The cultured MC-38 were harvested, re-suspended in base medium at a density of 1×10^7 cells/mL with viability>90%. Each mouse was inoculated subcutaneously at the right flank with 1×10^6 in 0.1 ml base medium for tumor development.
The treatments were started on day 4 after tumor inoculation when the tumor size reached 50-92 mm^3 (average tumor size 63 mm^3). Each group consisted of 8 tumor bearing mice. The testing article was administrated at a dosing volume of […] to the mice according to the predetermined regimen shown in Table 1-1. Testing article formulations were prepared according to standard procedures. Details regarding tumor measurements and endpoints, and statistical analysis are provided in EXAMPLE 3.
Tumor sizes were measured three times a week in two dimensions using a caliper, and the volume expressed in mm^3 using the formula: V=0.5 a×b^2 where a and b are the long and short diameters of the tumor, respectively. The tumor sizes were then used for the calculations of both tumor growth inhibition (TGI) and T/C values.
TGI is calculated for each group using the formula: […]
TVTreatment_DayN is the average tumor volume of a treatment group on a given day, TVTreatment_Day0 is the average tumor volume of the treatment group on the first day of treatment, TVVehicle_DayN is the average tumor volume of the vehicle control group on a given day, and TVVehicle_Day0 is the average tumor volume of the vehicle group on the first day of treatment.
The T/C value (in percent) is an indication of antitumor effectiveness, T/C (%)=RTVTreatment/RTVControl×100% (RTVTreatment: the mean RTV of the treatment group; RTVControl: the mean RTV of the vehicle treated group). RTV (relative tumor volume)=TVDayN/TVDay0. TVDayN and TVDay0 is the tumor volume on day N and Day 0 respectively. T/C (%)≤42% is considered as significant antitumor activity and <10% is considered as highly significant antitumor activity by the National Cancer Institute criteria.
Animal survival curve: When an individual animal reached to the termination endpoint (TV>2000 mm^3), the mouse was euthanized. The time from treatment initiation to the termination was deemed as its survival time. Survival curve was plotted by Kaplan-Meier method. Median survival time (MST) was calculated for each group. […]

[1] = 1 & 0.3 mg/kg (1 mg/kg QDx5 then 0.3 mg/kg QDx9 S.C.)
[2] = 3 & 1 mg/kg (3 mg/kg QDx5 then 1 mg/kg QDx9 S.C.)
[3] = Treatment (0.1) mg/kg, last line of the table

CC(=O)N[C@@H](Cc1c[nH]c2ccccc12)C(=O)N[C@@H](CCC(=O)C=[N+]=[N-])C(=O)OC(C)C [Compound 1, Isopropyl (S)-2-((S)-2-acetamido-3-(1H-indol-3-yl)propanamido)-6-diazo-5-oxohexanoate]
Tumor volume (mm^3), Mean ± SEM (0.1 mg/kg S.C. QD, Day 0): 62 ± 4 mm^3
Tumor volume (mm^3), Mean ± SEM (0.1 mg/kg S.C. QD, Day 2): 91 ± 10 mm^3
Tumor volume (mm^3), Mean ± SEM (0.1 mg/kg S.C. QD, Day 4): 112 ± 11 mm^3
Tumor volume (mm^3), Mean ± SEM (0.1 mg/kg S.C. QD, Day 7): 183 ± 32 mm^3
Tumor volume (mm^3), Mean ± SEM (0.1 mg/kg S.C. QD, Day 9): 247 ± 40 mm^3
Tumor volume (mm^3), Mean ± SEM (0.1 mg/kg S.C. QD, Day 11): 368 ± 72 mm^3
Tumor volume (mm^3), Mean ± SEM (0.1 mg/kg S.C. QD, Day 14): 744 ± 154 mm^3
RTV at day 14 (0.1 mg/kg S.C. QD): 12.29 ± 7.63
T/C (%) (0.1 mg/kg S.C. QD): 40.26%
TGI (%) (0.1 mg/kg S.C. QD): 62.52%
Tumor Size (mm^3) at day 14 (0.1 mg/kg S.C. QD): 743.79 ± 153.64 mm^3
ILS (%) (0.1 mg/kg): 22%
MST (0.1 mg/kg): 19.5 days
ILS (%) (0.15 mg/kg (BID)): 88%
MST (0.15 mg/kg (BID)): 30 days
Tumor volume (mm^3), Mean ± SEM (0.15 mg/kg S.C. BID, Day 0): 63 ± 5 mm^3
Tumor volume (mm^3), Mean ± SEM (0.15 mg/kg S.C. BID, Day 2): 87 ± 6 mm^3
Tumor volume (mm^3), Mean ± SEM (0.15 mg/kg S.C. BID, Day 4): 109 ± 6 mm^3
Tumor volume (mm^3), Mean ± SEM (0.15 mg/kg S.C. BID, Day 7): 195 ± 28 mm^3
Tumor volume (mm^3), Mean ± SEM (0.15 mg/kg S.C. BID, Day 9): 237 ± 30 mm^3
Tumor volume (mm^3), Mean ± SEM (0.15 mg/kg S.C. BID, Day 11): 288 ± 43 mm^3
Tumor volume (mm^3), Mean ± SEM (0.15 mg/kg S.C. BID, Day 14): 369 ± 56 mm^3
Tumor volume (mm^3), Mean ± SEM (0.3 mg/kg S.C. QD, Day 0): 62 ± 4 mm^3
Tumor volume (mm^3), Mean ± SEM (0.3 mg/kg S.C. QD, Day 2): 76 ± 5 mm^3
Tumor volume (mm^3), Mean ± SEM (0.3 mg/kg S.C. QD, Day 4): 88 ± 7 mm^3
Tumor volume (mm^3), Mean ± SEM (0.3 mg/kg S.C. QD, Day 7): 110 ± 14 mm^3
Tumor volume (mm^3), Mean ± SEM (0.3 mg/kg S.C. QD, Day 9): 143 ± 26 mm^3
Tumor volume (mm^3), Mean ± SEM (0.3 mg/kg S.C. QD, Day 11): 140 ± 29 mm^3
Tumor volume (mm^3), Mean ± SEM (0.3 mg/kg S.C. QD, Day 14): 235 ± 80 mm^3
RTV at day 14 (0.3 mg/kg S.C. QD): 3.83 ± 3.95
T/C (%) (0.3 mg/kg S.C. QD): 12.54%
TGI (%) (0.3 mg/kg S.C. QD): 90.47%
Tumor Size (mm^3) at day 14 (0.3 mg/kg S.C. QD): 235.18 ± 79.89 mm^3
ILS (%) (0.3 mg/kg): 94%
MST (0.3 mg/kg): 31 days
Tumor volume (mm^3), Mean ± SEM (0.5 mg/kg S.C. QD, Day 0): 63 ± 5 mm^3
Tumor volume (mm^3), Mean ± SEM (0.5 mg/kg S.C. QD, Day 2): 79 ± 4 mm^3
Tumor volume (mm^3), Mean ± SEM (0.5 mg/kg S.C. QD, Day 4): 97 ± 8 mm^3
Tumor volume (mm^3), Mean ± SEM (0.5 mg/kg S.C. QD, Day 7): 112 ± 8 mm^3
Tumor volume (mm^3), Mean ± SEM (0.5 mg/kg S.C. QD, Day 9): 109 ± 7 mm^3
Tumor volume (mm^3), Mean ± SEM (0.5 mg/kg S.C. QD, Day 11): 84 ± 9 mm^3
Tumor volume (mm^3), Mean ± SEM (0.5 mg/kg S.C. QD, Day 14): 97 ± 17 mm^3
RTV at day 14 (0.5 mg/kg S.C. QD): 1.63 ± 0.88
T/C (%) (0.5 mg/kg S.C. QD): 5.33%
TGI (%) (0.5 mg/kg S.C. QD): 98.16%
Tumor Size (mm^3) at day 14 (0.5 mg/kg S.C. QD): 96.6 ± 16.6 mm^3
ILS (%) (0.5 mg/kg): 131%
MST (0.5 mg/kg): 37 days
Tumor volume (mm^3), Mean ± SEM (1 mg/kg QDx5 then 0.3 mg/kg QDx9 S.C., 2 cycles, Day 0): 63 ± 4 mm^3
Tumor volume (mm^3), Mean ± SEM (1 mg/kg QDx5 then 0.3 mg/kg QDx9 S.C., 2 cycles, Day 2): 73 ± 5 mm^3
Tumor volume (mm^3), Mean ± SEM (1 mg/kg QDx5 then 0.3 mg/kg QDx9 S.C., 2 cycles, Day 4): 85 ± 7 mm^3
Tumor volume (mm^3), Mean ± SEM (1 mg/kg QDx5 then 0.3 mg/kg QDx9 S.C., 2 cycles, Day 7): 97 ± 10 mm^3
Tumor volume (mm^3), Mean ± SEM (1 mg/kg QDx5 then 0.3 mg/kg QDx9 S.C., 2 cycles, Day 9): 101 ± 9 mm^3
Tumor volume (mm^3), Mean ± SEM (1 mg/kg QDx5 then 0.3 mg/kg QDx9 S.C., 2 cycles, Day 11): 116 ± 19 mm^3
Tumor volume (mm^3), Mean ± SEM (1 mg/kg QDx5 then 0.3 mg/kg QDx9 S.C., 2 cycles, Day 14): 119 ± 22 mm^3
Tumor volume (mm^3), Mean ± SEM (1 mg/kg S.C. QD, Day 0): 62 ± 4 mm^3
Tumor volume (mm^3), Mean ± SEM (1 mg/kg S.C. QD, Day 2): 74 ± 5 mm^3
Tumor volume (mm^3), Mean ± SEM (1 mg/kg S.C. QD, Day 4): 85 ± 5 mm^3
Tumor volume (mm^3), Mean ± SEM (1 mg/kg S.C. QD, Day 7): 94 ± 5 mm^3
Tumor volume (mm^3), Mean ± SEM (1 mg/kg S.C. QD, Day 9): 100 ± 7 mm^3
Tumor volume (mm^3), Mean ± SEM (1 mg/kg S.C. QD, Day 11): 80 ± 8 mm^3
Tumor volume (mm^3), Mean ± SEM (1 mg/kg S.C. QD, Day 14): 68 ± 12 mm^3
RTV at day 14 (1 mg/kg S.C. QD): 1.13 ± 0.67
T/C (%) (1 mg/kg S.C. QD): 3.71%
TGI (%) (1 mg/kg S.C. QD): 99.69%
Tumor Size (mm^3) at day 14 (1 mg/kg S.C. QD): 68.23 ± 12.12 mm^3
ILS (%) (1 mg/kg, then 0.3 mg/kg): 131%
MST (1 mg/kg, then 0.3 mg/kg): 37 days
ILS (%) (1 mg/kg): 144%
MST (1 mg/kg): 39 days
Tumor volume (mm^3), Mean ± SEM (3 mg/kg QDx5 then 1 mg/kg QDx9 S.C., 2 cycles, Day 0): 63 ± 5 mm^3
Tumor volume (mm^3), Mean ± SEM (3 mg/kg QDx5 then 1 mg/kg QDx9 S.C., 2 cycles, Day 2): 70 ± 3 mm^3
Tumor volume (mm^3), Mean ± SEM (3 mg/kg QDx5 then 1 mg/kg QDx9 S.C., 2 cycles, Day 4): 83 ± 7 mm^3
Tumor volume (mm^3), Mean ± SEM (3 mg/kg QDx5 then 1 mg/kg QDx9 S.C., 2 cycles, Day 7): 87 ± 8 mm^3
Tumor volume (mm^3), Mean ± SEM (3 mg/kg QDx5 then 1 mg/kg QDx9 S.C., 2 cycles, Day 9): 90 ± 6 mm^3
Tumor volume (mm^3), Mean ± SEM (3 mg/kg QDx5 then 1 mg/kg QDx9 S.C., 2 cycles, Day 11): 79 ± 10 mm^3
Tumor volume (mm^3), Mean ± SEM (3 mg/kg QDx5 then 1 mg/kg QDx9 S.C., 2 cycles, Day 14): 43 ± 4 mm^3
ILS (%) (3 mg/kg, then 1 mg/kg): 131%
MST (3 mg/kg, then 1 mg/kg): 37 days
RTV at day 14 [1]: 1.85 ± 0.82
T/C (%) [1]: 6.05%
TGI (%) [1]: 96.95%
Tumor Size (mm^3) at day 14 [1]: 118.69 ± 21.92 mm^3
RTV at day 14 [2]: 0.69 ± 0.16
T/C (%) [2]: 2.27%
TGI (%) [2]: 101.09%
Tumor Size (mm^3) at day 14 [2]: 42.91 ± 3.89 mm^3
RTV at day 14 [3]: 5.99 ± 2.92
T/C (%) [3]: 19.62%
TGI (%) [3]: 83.19%
Tumor Size (mm^3) at day 14 [3]: 369.41 ± 56.37 mm^3
